Test results: PubChem BioAssay (NCI)
Several values for one entry are separate records, joined by “and”; a condition that tells them apart may be missing. Identical values can stand only once.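 Where inhibition never reached the appropriate level, the endpoint shown equals the highest concentration tested. Otherwise, values were interpolated linearly from a five-concentration, 48-hour dose response in 96-well plates. GI50 marks 50% less growth. At the TGI there is no net growth.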

Tests used:
Assay in all cases: NCI tumour cell line growth inhibition, 48 h
[1] = test system: XF 498 CNS
[2] = test system: RXF-631 renal
[3] = test system: DMS 273 small cell lung
[4] = test system: DMS 114 small cell lung
[5] = test system: P388/ADR leukemia
[6] = test system: HS 578T breast
[7] = test system: SN12K1 renal
[8] = test system: MDA-N
[9] = test system: PC-3 prostate
[10] = test system: DU-145 prostate
[11] = test system: P388 leukemia
[12] = test system: T-47D breast

Row | Compound | TGI [1] | TGI [2] | TGI [3] | TGI [4] | also measured
1 | C=C[C@@]1(C)CCC2(O)C(CCC3C2(C)CCC[C@@]3(C)COC(=O)CC(=O)OC)C1 (stereo not given in full) | 40.6 µM | 38.2 µM | – | – | –
2 | CCCCSN1C(=O)c2ccccc2C1=S | > 100 µM | > 100 µM | > 100 µM | > 100 µM | –
3 | Cc1ccc(C2CC(c3ccc([N+](=O)[O-])cc3)=Nc3ccccc3S2)cc1 (stereo not given) | 55.7 µM | > 100 µM | – | 59 µM | –
4 | CC1(C)OC(=O)[C@@](C)([C@H](O)c2ccccc2)O1 | > 100 µM | > 100 µM | > 100 µM | > 100 µM | –
5 | N#CNC(N)=NCCO | > 100 µM | > 100 µM | > 100 µM | > 100 µM | –
6 | O=S1CSCS1 (stereo not given) | > 100 µM | > 100 µM | > 100 µM | > 100 µM | –
7 | O=C(CC(=O)c1ccc([N+](=O)[O-])cc1)C(=O)Nc1nccs1 | > 100 µM | > 100 µM | > 100 µM | > 100 µM | –
8 | C/C=C(\C)c1cc(=O)c2c(C)cc3c(c2o1)C(=O)c1c(O)c(C2CC(C)(N(C)C)C(O)C(C)O2)cc(C2CC(N(C)C)C(O)C(C)O2)c1C3=O (stereo not given) | – | – | 11.4 µM | 4.45 µM | TGI [5]: 67.9 µM; TGI [6]: 0.517 µM; TGI [7]: 2.52 µM; TGI [8]: 0.46 µM; TGI [9]: 1.42 µM; TGI [10]: 5.75 µM; TGI [11]: 5.36 µM; TGI [12]: 3.12 µM
9 | Cc1ccc(NC(=O)CC/C(CC(=O)C(C)(C)C)=N/NC(=O)C(N)=O)cc1C | > 100 µM | > 100 µM | > 100 µM | > 100 µM | –
10 | CC(C)N(C(=O)C12C3C4C5C3C1(C(=O)N(C(C)C)C(C)C)C5(C#N)C42)C(C)C (stereo not given) | > 100 µM | > 100 µM | > 100 µM | > 100 µM | –
11 | CC1(C)CCC[C@@]2(C)C1C[C@H](O)[C@@]1(C)O[C@@](C)([C@H](O)CO)CCC21 (stereo not given in full) | > 100 µM | > 100 µM | > 100 µM | 90.2 µM | –
12 | COc1ccc(C2=Nc3ccccc3SC(C)C2)cc1 (stereo not given) | – | > 100 µM | > 100 µM | > 100 µM | –
13 | COc1c(C2=NC(C(C)C)CO2)ccc2ccccc12 (stereo not given) | > 100 µM | > 100 µM | > 100 µM | – | –
14 | COc1cc(=O)oc(/C=C/C=O)c1C | 32.4 µM | 27.9 µM | 32.8 µM | 26.3 µM | –
15 | NC(C/[N+]([O-])=N/O)C(=O)O (stereo not given) | 40.1 µM | – | 50.4 µM | 10.9 µM | TGI [5]: 336 µM; TGI [6]: > 225 µM; TGI [7]: 257 µM; TGI [8]: > 500 µM; GI50 [9]: 6.71 µM and 3.64 µM and 4.92 µM; TGI [9]: > 500 µM; GI50 [10]: 173 µM; TGI [10]: > 500 µM; TGI [11]: 337 µM; GI50 [12]: 198 µM; TGI [12]: > 500 µM
16 | CC(=O)OCCOCNC(=S)N/N=C/c1ccc2ccccc2n1 | > 100 µM | > 100 µM | > 100 µM | 71.3 µM | –
17 | Cc1c(C(=O)CC(=O)C(=O)Nc2c(C(C)C)cccc2C(C)C)[n+](=O)c2ccccc2n1[O-] | 15 µM | 14.4 µM | 12.1 µM | 6.41 µM | –
18 | O=C1c2ccccc2C(=O)C2C1C1C(=O)c3ccccc3C(=O)C21 (stereo not given) | – | > 100 µM | > 100 µM | > 100 µM | –
19 | O=C1c2cccc3cc([N+](=O)[O-])cc(c23)C(=O)N1NC1=NCCN1 | > 100 µM | > 100 µM | > 100 µM | > 100 µM | –
20 | O=C(c1ccccc1)C(c1ccccc1)C1(O)C(=O)Nc2ccccc21 (stereo not given) | > 100 µM | > 100 µM | > 100 µM | > 100 µM | –
